Here are results for five compounds from patent publication US9936701B2, “Herbicidal compounds” (Syngenta Participations AG, priority 2013, dated 2018).

For the first assay, the system named is a variety of test species. As to the kind of experiment: Pre-emergence herbicidal activity (glasshouse, sprayed one day after sowing, evaluated after 13 days). Type of assay: in vivo. The settings on record: ABUTH, application pre-emergence, rate 1000 g/Ha, scale 0-5. On the set-up: key: 5=total damage to plant; 0=no damage to plant. The essentials: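 Seeds sown in standard soil in pots, held one day in glasshouse (24/16 °C day/night, 14 h light, 65% humidity), then sprayed with aqueous solution of compound formulated in acetone/water 50:50 with 0.5% Tween 20. Grown on under same conditions, watered twice daily; damage scored after 13 days (0 = none, 5 = total).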
Consider `CCC(=O)OC1C(C)=C(Cl)C(=O)N1c1cc(C(C)(C)C)on1` (stereo not drawn) [A93], for which the “Pre-emergence herbicidal damage score, ABUTH” value is 5.
The same measure, in the same setting: next, `CCOC(=O)OC1C(C)=C(Cl)C(=O)N1c1noc(C(C)(C)C)c1C#N` (stereo not drawn) [A96]: 5; `CC1=C(Cl)C(=O)N(c2noc(C(C)(C)C)c2C#N)C1Cl` (stereo not drawn) [A97, 5-tert-butyl-3-(2A-dichloro-3-methyl-5-oxo-2H-pyrrol-1-yl)isoxazole-4-carbonitrile]: 5.
As for `CC1=C(Cl)C(=O)N(c2noc(C(C)(C)C)c2C#N)C1OS(C)(=O)=O` (stereo not drawn) [A98], the “Pre-emergence herbicidal damage score, ABUTH” value was 5.
The same measure, in the same setting: with `CCC(=O)OC1C(C)=C(Cl)C(=O)N1c1cc(C(C)(CC)CC#N)on1` (stereo not drawn) [A99] the figure was 5.

Staying with this assay, now noted: ALOMY, application pre-emergence, rate 1000 g/Ha, scale 0-5.
For `CCC(=O)OC1C(C)=C(Cl)C(=O)N1c1cc(C(C)(C)C)on1` (stereo not drawn) [A93], the “Pre-emergence herbicidal damage score, ALOMY” value was 4.
As for `CCOC(=O)OC1C(C)=C(Cl)C(=O)N1c1noc(C(C)(C)C)c1C#N` (stereo not drawn) [A96], the “Pre-emergence herbicidal damage score, ALOMY” value is 4.
The same measure, in the same setting: with `CC1=C(Cl)C(=O)N(c2noc(C(C)(C)C)c2C#N)C1Cl` (stereo not drawn) [A97, 5-tert-butyl-3-(2A-dichloro-3-methyl-5-oxo-2H-pyrrol-1-yl)isoxazole-4-carbonitrile] the figure was 4; with `CC1=C(Cl)C(=O)N(c2noc(C(C)(C)C)c2C#N)C1OS(C)(=O)=O` (stereo not drawn) [A98], 3; with `CCC(=O)OC1C(C)=C(Cl)C(=O)N1c1cc(C(C)(CC)CC#N)on1` (stereo not drawn) [A99], 4.

The same assay, now with this note: AMARE, application pre-emergence, rate 1000 g/Ha, scale 0-5.
With `CCC(=O)OC1C(C)=C(Cl)C(=O)N1c1cc(C(C)(C)C)on1` (stereo not drawn) [A93], the “Pre-emergence herbicidal damage score, AMARE” value was 5.
Turning to `CCOC(=O)OC1C(C)=C(Cl)C(=O)N1c1noc(C(C)(C)C)c1C#N` (stereo not drawn) [A96], the “Pre-emergence herbicidal damage score, AMARE” value came out at 5.
Consider `CC1=C(Cl)C(=O)N(c2noc(C(C)(C)C)c2C#N)C1Cl` (stereo not drawn) [A97, 5-tert-butyl-3-(2A-dichloro-3-methyl-5-oxo-2H-pyrrol-1-yl)isoxazole-4-carbonitrile], for which the “Pre-emergence herbicidal damage score, AMARE” value is given as 5.
Still for that read-out and setting: next, `CC1=C(Cl)C(=O)N(c2noc(C(C)(C)C)c2C#N)C1OS(C)(=O)=O` (stereo not drawn) [A98]: 5; `CCC(=O)OC1C(C)=C(Cl)C(=O)N1c1cc(C(C)(CC)CC#N)on1` (stereo not drawn) [A99]: 5.

Still in this assay, the particulars now being: ECHCG, application pre-emergence, rate 1000 g/Ha, scale 0-5.
Consider `CCC(=O)OC1C(C)=C(Cl)C(=O)N1c1cc(C(C)(C)C)on1` (stereo not drawn) [A93], for which the “Pre-emergence herbicidal damage score, ECHCG” value worked out at 4.
Take `CCOC(=O)OC1C(C)=C(Cl)C(=O)N1c1noc(C(C)(C)C)c1C#N` (stereo not drawn) [A96]: the “Pre-emergence herbicidal damage score, ECHCG” value came to 5.
For the compound `CC1=C(Cl)C(=O)N(c2noc(C(C)(C)C)c2C#N)C1Cl` (stereo not drawn) [A97, 5-tert-butyl-3-(2A-dichloro-3-methyl-5-oxo-2H-pyrrol-1-yl)isoxazole-4-carbonitrile], the “Pre-emergence herbicidal damage score, ECHCG” value is listed as 4.
As for `CC1=C(Cl)C(=O)N(c2noc(C(C)(C)C)c2C#N)C1OS(C)(=O)=O` (stereo not drawn) [A98], the “Pre-emergence herbicidal damage score, ECHCG” value came to 5.
The same measure, in the same setting: with `CCC(=O)OC1C(C)=C(Cl)C(=O)N1c1cc(C(C)(CC)CC#N)on1` (stereo not drawn) [A99] the figure was 5.

The same assay, now with this note: SETFA, application pre-emergence, rate 1000 g/Ha, scale 0-5.
As for `CCC(=O)OC1C(C)=C(Cl)C(=O)N1c1cc(C(C)(C)C)on1` (stereo not drawn) [A93], the “Pre-emergence herbicidal damage score, SETFA” value is given as 5.
On the same count and under the same terms, next, `CCOC(=O)OC1C(C)=C(Cl)C(=O)N1c1noc(C(C)(C)C)c1C#N` (stereo not drawn) [A96]: 5; `CC1=C(Cl)C(=O)N(c2noc(C(C)(C)C)c2C#N)C1Cl` (stereo not drawn) [A97, 5-tert-butyl-3-(2A-dichloro-3-methyl-5-oxo-2H-pyrrol-1-yl)isoxazole-4-carbonitrile]: 5.
Consider `CC1=C(Cl)C(=O)N(c2noc(C(C)(C)C)c2C#N)C1OS(C)(=O)=O` (stereo not drawn) [A98], for which the “Pre-emergence herbicidal damage score, SETFA” value turned out to be 5.
Regarding `CCC(=O)OC1C(C)=C(Cl)C(=O)N1c1cc(C(C)(CC)CC#N)on1` (stereo not drawn) [A99], the “Pre-emergence herbicidal damage score, SETFA” value came to 5.

Staying with this assay, now noted: ZEAMX, application pre-emergence, rate 1000 g/Ha, scale 0-5.
Turning to `CCC(=O)OC1C(C)=C(Cl)C(=O)N1c1cc(C(C)(C)C)on1` (stereo not drawn) [A93], the “Pre-emergence herbicidal damage score, ZEAMX” value amounted to 3.
Same read-out and setting: with `CCOC(=O)OC1C(C)=C(Cl)C(=O)N1c1noc(C(C)(C)C)c1C#N` (stereo not drawn) [A96] the figure was 3; with `CC1=C(Cl)C(=O)N(c2noc(C(C)(C)C)c2C#N)C1Cl` (stereo not drawn) [A97, 5-tert-butyl-3-(2A-dichloro-3-methyl-5-oxo-2H-pyrrol-1-yl)isoxazole-4-carbonitrile], 3.
On to `CC1=C(Cl)C(=O)N(c2noc(C(C)(C)C)c2C#N)C1OS(C)(=O)=O` (stereo not drawn) [A98], for which the “Pre-emergence herbicidal damage score, ZEAMX” value was 3.
Regarding `CCC(=O)OC1C(C)=C(Cl)C(=O)N1c1cc(C(C)(CC)CC#N)on1` (stereo not drawn) [A99], the “Pre-emergence herbicidal damage score, ZEAMX” value is 3.

For the next assay, the system named is a variety of test species. As to the kind of experiment: Post-emergence herbicidal activity (glasshouse, sprayed after 8 days cultivation, evaluated after 13 days). The following applies: Abutilon theophrasti, rate 1000 g/Ha, scale 0-5. Type of assay: in vivo. Further details: key: 5=total damage to plant; 0=no damage to plant. The method, boiled down:
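Pot-grown plants, 8 days after sowing, were sprayed with compound formulated in acetone/water (50:50) with 0.5% Tween 20. Glasshouse conditions 24/16° C day/night, 14 h light, 65% humidity; damage scored after 13 days on a 0 (none) to 5 (total) scale.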
For the compound `CCC(=O)OC1C(C)=C(Cl)C(=O)N1c1cc(C(C)(C)C)on1` (stereo not drawn) [A93], the “ABUTH (Abutilon theophrasti) damage score, application post-emergence” value (“ABUTH … application post-emergence” for short) is 5.
As for `CCOC(=O)OC1C(C)=C(Cl)C(=O)N1c1noc(C(C)(C)C)c1C#N` (stereo not drawn) [A96], the “ABUTH … application post-emergence” value amounted to 5.
With `CC1=C(Cl)C(=O)N(c2noc(C(C)(C)C)c2C#N)C1Cl` (stereo not drawn) [A97, 5-tert-butyl-3-(2A-dichloro-3-methyl-5-oxo-2H-pyrrol-1-yl)isoxazole-4-carbonitrile], the “ABUTH … application post-emergence” value came out at 5.
Turning to `CC1=C(Cl)C(=O)N(c2noc(C(C)(C)C)c2C#N)C1OS(C)(=O)=O` (stereo not drawn) [A98], the “ABUTH … application post-emergence” value is given as 5.
For the compound `CCC(=O)OC1C(C)=C(Cl)C(=O)N1c1cc(C(C)(CC)CC#N)on1` (stereo not drawn) [A99], the “ABUTH … application post-emergence” value is 5.

The assay is the same for the next values; noted with them: Alopecurus myosuroides, rate 1000 g/Ha, scale 0-5.
On to `CCC(=O)OC1C(C)=C(Cl)C(=O)N1c1cc(C(C)(C)C)on1` (stereo not drawn) [A93], for which the “ALOMY (Alopecurus myosuroides) damage score, application post-emergence” value (“ALOMY … application post-emergence” for short) came out at 5.
`CCOC(=O)OC1C(C)=C(Cl)C(=O)N1c1noc(C(C)(C)C)c1C#N` (stereo not drawn) [A96]: the “ALOMY … application post-emergence” value is listed as 5.
Turning to `CC1=C(Cl)C(=O)N(c2noc(C(C)(C)C)c2C#N)C1Cl` (stereo not drawn) [A97, 5-tert-butyl-3-(2A-dichloro-3-methyl-5-oxo-2H-pyrrol-1-yl)isoxazole-4-carbonitrile], the “ALOMY … application post-emergence” value worked out at 5.
Still for that read-out and setting: with `CC1=C(Cl)C(=O)N(c2noc(C(C)(C)C)c2C#N)C1OS(C)(=O)=O` (stereo not drawn) [A98] the figure was 5; with `CCC(=O)OC1C(C)=C(Cl)C(=O)N1c1cc(C(C)(CC)CC#N)on1` (stereo not drawn) [A99], 5.

The same assay, now with this note: Amaranthus retroflexus, rate 1000 g/Ha, scale 0-5.
As for `CCC(=O)OC1C(C)=C(Cl)C(=O)N1c1cc(C(C)(C)C)on1` (stereo not drawn) [A93], the “AMARE (Amaranthus retroflexus) damage score, application post-emergence” value is reported as 5.
The same measure, in the same setting: next, `CCOC(=O)OC1C(C)=C(Cl)C(=O)N1c1noc(C(C)(C)C)c1C#N` (stereo not drawn) [A96]: 5; `CC1=C(Cl)C(=O)N(c2noc(C(C)(C)C)c2C#N)C1Cl` (stereo not drawn) [A97, 5-tert-butyl-3-(2A-dichloro-3-methyl-5-oxo-2H-pyrrol-1-yl)isoxazole-4-carbonitrile]: 5; `CC1=C(Cl)C(=O)N(c2noc(C(C)(C)C)c2C#N)C1OS(C)(=O)=O` (stereo not drawn) [A98]: 5.
With `CCC(=O)OC1C(C)=C(Cl)C(=O)N1c1cc(C(C)(CC)CC#N)on1` (stereo not drawn) [A99], the “AMARE (Amaranthus retroflexus) damage score, application post-emergence” value is 5.

The assay is the same for the next values; noted with them: Echinochloa crus-galli, rate 1000 g/Ha, scale 0-5.
In the case of `CCC(=O)OC1C(C)=C(Cl)C(=O)N1c1cc(C(C)(C)C)on1` (stereo not drawn) [A93], the “ECHCG (Echinochloa crus-galli) damage score, application post-emergence” value (“ECHCG … application post-emergence” for short) is listed as 5.
Take `CCOC(=O)OC1C(C)=C(Cl)C(=O)N1c1noc(C(C)(C)C)c1C#N` (stereo not drawn) [A96]: the “ECHCG … application post-emergence” value is recorded as 5.
With `CC1=C(Cl)C(=O)N(c2noc(C(C)(C)C)c2C#N)C1Cl` (stereo not drawn) [A97, 5-tert-butyl-3-(2A-dichloro-3-methyl-5-oxo-2H-pyrrol-1-yl)isoxazole-4-carbonitrile], the “ECHCG … application post-emergence” value is 5.
As to `CC1=C(Cl)C(=O)N(c2noc(C(C)(C)C)c2C#N)C1OS(C)(=O)=O` (stereo not drawn) [A98], the “ECHCG … application post-emergence” value is reported as 5.
Turning to `CCC(=O)OC1C(C)=C(Cl)C(=O)N1c1cc(C(C)(CC)CC#N)on1` (stereo not drawn) [A99], the “ECHCG … application post-emergence” value is on record as 5.

Staying with this assay, now noted: Setaria faberi, rate 1000 g/Ha, scale 0-5.
Take `CCC(=O)OC1C(C)=C(Cl)C(=O)N1c1cc(C(C)(C)C)on1` (stereo not drawn) [A93]: the “SETFA (Setaria faberi) damage score, application post-emergence” value (“SETFA (Setaria faberi) damage score” for short) came to 5.
Consider `CCOC(=O)OC1C(C)=C(Cl)C(=O)N1c1noc(C(C)(C)C)c1C#N` (stereo not drawn) [A96], for which the “SETFA (Setaria faberi) damage score” value is given as 5.
In the case of `CC1=C(Cl)C(=O)N(c2noc(C(C)(C)C)c2C#N)C1Cl` (stereo not drawn) [A97, 5-tert-butyl-3-(2A-dichloro-3-methyl-5-oxo-2H-pyrrol-1-yl)isoxazole-4-carbonitrile], the “SETFA (Setaria faberi) damage score” value is 5.
Same read-out and setting: with `CC1=C(Cl)C(=O)N(c2noc(C(C)(C)C)c2C#N)C1OS(C)(=O)=O` (stereo not drawn) [A98] the figure was 5; with `CCC(=O)OC1C(C)=C(Cl)C(=O)N1c1cc(C(C)(CC)CC#N)on1` (stereo not drawn) [A99], 5.

Still in this assay, the particulars now being: Zea mays, rate 1000 g/Ha, scale 0-5.
For the compound `CCC(=O)OC1C(C)=C(Cl)C(=O)N1c1cc(C(C)(C)C)on1` (stereo not drawn) [A93], the “ZEAMX (Zea mays) damage score, application post-emergence” value amounted to 4.
Still for that read-out and setting: with `CCOC(=O)OC1C(C)=C(Cl)C(=O)N1c1noc(C(C)(C)C)c1C#N` (stereo not drawn) [A96] the figure was 5; with `CC1=C(Cl)C(=O)N(c2noc(C(C)(C)C)c2C#N)C1Cl` (stereo not drawn) [A97, 5-tert-butyl-3-(2A-dichloro-3-methyl-5-oxo-2H-pyrrol-1-yl)isoxazole-4-carbonitrile], 3; with `CC1=C(Cl)C(=O)N(c2noc(C(C)(C)C)c2C#N)C1OS(C)(=O)=O` (stereo not drawn) [A98], 4.
Turning to `CCC(=O)OC1C(C)=C(Cl)C(=O)N1c1cc(C(C)(CC)CC#N)on1` (stereo not drawn) [A99], the “ZEAMX (Zea mays) damage score, application post-emergence” value was 5.
